The text below walks through data of patent US6680300B2 (Board of Regents, The University of Texas System, priority 1998, dated 2004).

≈ marks a conversion by molar mass, not a printed value. Where “and” joins values, the source holds several entries; their conditions need not be identical. Equal entries are not always repeated. A value given as a limit tells only on which side of the number the result lay.

In experiment [1] the test system is multi-drug-resistant (KBV1) carcinoma cells overexpressing MDR1 (P-gp). The experiment in a line: MTT cytotoxicity assay, multi-drug-resistant KBV1 cells. It is filed as cell-based, human. The conditions noted are these: for RI (resistance index) KBV1 vs KB: KBV1 relative to KB; for ID50 KBV1: MTT, 72 hours incubation, KBV1 cells. The procedure: (§1) Compounds synthesized using the methods described above were tested using a standard MTT assay (Green et al., 1984) against human carcinoma sensitive (KB) and multi-drug-resistant (KBV1) cells and MCF-7 and MCF-7/VP-16 resistant cells characterized as having the MRP (multi-drug resistant associated protein) phenotype. The use of an MTT assay using these cells is recognized as an accepted assay for anti-tumor activity by those in the field.
(§2) In vitro drug cytotoxicities against human breast carcinoma wild-type MCF-7 and MRP-resistant MCF-7/VP-16 cells were assessed by using the MTT reduction assay, as previously reported (Green et al., 1984). The MTT dye was obtained from Sigma Chemical Co. (St. Louis, Mo.). Cells were plated in 96-well microassay culture plates (10^4 cells/well) and grown overnight at 37° C. in a 5% CO2 incubator. Drugs were then added to the wells to achieve a final drug concentration ranging from 0.1 to 50 μg/mL. Four wells were used for each concentration. Control wells were prepared by adding appropriate volumes of calcium- and magnesium-free PBS (pH 7.4). Wells containing culture medium without cells were used as blanks. The plates were incubated at 37° C. in a 5% CO2 incubator for 72 hours. Upon completion of the incubation, 20 μL of stock MTT dye solution (5 mg/mL) was added to each well. After a 4-hour incubation, 100 μL of buffer containing 50% N,N-dimethylformamide and 20% SDS was added to solubilize the MTT formazan. Complete solubilization was achieved by placing the plate in a mechanical shaker for 30 minutes at room temperature. The optical density of each well was then measured with a microplate spectrophotometer at a wavelength of 570 nm. The percent cell viability was calculated by the following equation:
(§3) % cell viability=(OD treated wells/OD control wells)×100
(§4) where OD is the mean optical density from four determinations. The percent cell viability values were plotted against the drug concentrations used, and the ID50 was calculated from the curve. Cytotoxicity experiments were repeated at least three times.
(§5) Drug resistance, both de novo and acquired, by human tumors is currently a major factor limiting the effectiveness of chemotherapy. […] Using this system, the inventors evaluate a drug's cytotoxic potential against human tumors and at the same time identify compounds that might have unique activity against MDR tumors (Priebe et al., 1993).
On the technique in general: Tetrazolium assays rely on reduction of a dye to a coloured formazan, in cell work by metabolically active cells.

For experiment [2], the system named is human carcinoma sensitive (KB) cells. The experiment in a line: MTT cytotoxicity assay, sensitive KB cells. It is filed as cell-based. The conditions noted are these: 72 hours incubation. The procedure:
as §1, §2, §3
where OD is the mean optical density from four determinations. The percent cell viability values were plotted against the drug concentrations used, and the ID50 was calculated from the curve. Cytotoxicity experiments were repeated at least three times. […]

For experiment [3], the system named is MCF-7/dox cell line which overexpresses MDR1 gene. The experiment in a line: MTT cytotoxicity assay, MCF-7/dox cells. It is filed as cell-based, human. Conditions: for RI (resistance index) MCF-7/dox vs MCF-7: MCF-7/dox relative to MCF-7; for ID50 MCF-7/dox: MTT, 72 hours incubation, MCF-7/dox cells. How it is done:
[Worded in the source for another cell line; this cell line is reported under the same test.] as §1, §2, §3, §4, §5

For experiment [4], the system named is human breast carcinoma wild-type MCF-7 cells. As to the kind of experiment: MTT cytotoxicity assay, wild-type MCF-7 cells. Conditions: 72 hours incubation. The experiment is classed as cell-based. The procedure: as §1
(§6) In vitro drug cytotoxicities against human breast carcinoma wild-type MCF-7 and MRP-resistant MCF-7/VP-16 cells were assessed by using the MTT reduction assay, as previously reported (Green et al., 1984). The MTT dye was obtained from Sigma Chemical Co. (St. Louis, Mo.). Cells were plated in 96-well microassay culture plates (10^4 cells/well) and grown overnight at 37° C. in a 5% CO2 incubator. Drugs were then added to the wells to achieve a final drug concentration ranging from 0.1 to 50 μg/mL. Four wells were used for each concentration. […] The optical density of each well was then measured with a microplate spectrophotometer at a wavelength of 570 nm. The percent cell viability was calculated by the following equation: […]
(§7) where OD is the mean optical density from four determinations. The percent cell viability values were plotted against the drug concentrations used, and the ID50 was calculated from the curve. […]

Experiment [5] deals with MRP-resistant MCF-7/VP-16 cells. As to the kind of experiment: MTT cytotoxicity assay, MRP-resistant MCF-7/VP-16 cells. It is filed as cell-based, human. How it is done:
as §1, §6, §7

For a further experiment, the system named is several cell lines. The experiment in a line: In vitro potency comparison in several cell lines. Conditions: in vitro cytotoxicity. The experiment is classed as cell-based.

In the case of `COc1cccc2c1C(=O)c1c(O)c3c(c(O)c1C2=O)C[C@@](O)(C(C)=O)C[C@@H]3O[C@H]1C[C@H](N)[C@H](O)[C@H](C)O1` [DNR, daunorubicin], in experiment [1], the “RI (resistance index) KBV1 vs KB” value was determined as 45 and the “ID50 KBV1” value is 10,000 ± 0 ng/mL. For the same compound, the “ID50 KB” value in experiment [2] came to 220 ± 10 ng/mL (≈ 417 nM).

Turning to `COc1cccc2c1C(=O)c1c(O)c3c(c(O)c1C2=O)C[C@@](O)(C(=O)CO)C[C@@H]3O[C@H]1C[C@H](N)[C@H](O)[C@H](C)O1` [DOX, doxorubicin], in experiment [1], the “RI (resistance index) KBV1 vs KB” value is more than 294 and the “ID50 KBV1” value is >100,000 ng/mL. Also, in experiment [3], the “RI (resistance index) MCF-7/dox vs MCF-7” value is >333 and >416; the “ID50 MCF-7/dox” value was 100,000 ng/mL and >100,000 ng/mL. Besides, in experiment [2], the “ID50 KB” value is reported as 340 ± 100 ng/mL (≈ 626 nM). The “ID50 MCF-7” value in experiment [4] was 300 ± 170 ng/mL and 240 ± 50 ng/mL.

Consider `COc1cccc2c1C(=O)c1c(O)c3c(c(O)c1C2=O)C[C@@](O)(C(=O)CO)C[C@@H]3O[C@H]1C[C@H]2[C@H](OC3CCCN32)[C@H](C)O1` (stereo partly shown) [WP836], for which the “RI (resistance index) MCF-7/VP-16 vs MCF-7” value in experiment [5] (MCF-7/VP-16 relative to MCF-7) came to 1. The “ID50 MCF-7/VP-16” value in experiment [5] (MTT, 72 hours incubation, MCF-7/VP-16 cells) came out at 0.43 ± 0.06 ng/mL (≈ 0.722 nM). Moreover, the “potency relative to daunorubicin analog WP809” value in the experiment with several cell lines is given as “several fold”. For the same compound, in experiment [3], the “RI (resistance index) MCF-7/dox vs MCF-7” value was found to be 1.56 and the “ID50 MCF-7/dox” value turned out to be 0.67 ± 0.15 ng/mL (≈ 1.12 nM). For the same compound, the “ID50 KB” value in experiment [2] is 0.65 ± 0.14 ng/mL and 0.5 ± 0.06 ng/mL. In addition, in experiment [4], the “ID50 MCF-7” value is 0.43 ± 0.06 ng/mL (≈ 0.722 nM).
